# “Also recorded” adds a separate entry of the source. Non-standard residues stand in square brackets, D forms with d. Residues, ends and D or L forms follow the SMILES beside them. *: point of attachment. Dolaproine = CO[C@@H]([C@@H]1CCCN1)[C@@H](C)C(=O)O; Dil = CC[C@H](C)[C@H](NC)[C@@H](CC(=O)O)OC; X1 = C[C@@H](N*)[C@@H](O)c1ccccc1; NMeV = CN[C@H](C(=O)O)C(C)C
# Columns and labels:
# Assay type in all cases: cell-based
# [1] = tested on: U-266 multiple myeloma cells; experiment: Western blot analysis of ER stress in U-266 cells; details: MMAE 492 nM, SGN-CD48A 10 ng/ml, 24 and 48 hours
# Experimental: U-266 multiple myeloma cells were treated with free MMAE (492 nM), an MMAE-containing ADC (SGN-CD48A, 10 ng/ml), and a non-binding MMAE-ADO (10 ng/ml) for 24 and 48 hours. Cells were harvested at each time point and whole cell lysates were prepared. Lysates for each sample were run on an SDS-Page and transferred onto a nitrocellulose membrane. Western blot analysis was performed using phospho-JNK Thr183/Tyr185 (pJNK), PARR, ATF4, […], phospho-IRE-1 Ser274 (pIRE-1). β-actin serves as a loading control. […] Importantly, the induction of ER stress by MMAE in U-266 cells was sufficient to elicit markers of ICD.
# [2] = tested on: Calu-1, HT1080 and SK-MES-1 cells co-cultured with macrophages; experiment: Macrophage costimulation/antigen presentation after co-culture with treated Calu-1, HT1080 and SK-MES-1 cells; details: normalized to untreated
# Experimental: Additional cell lines [Calu-1 (lung), HT1080 (fibrosarcoma) and SK-MES-1 […]] were tested for levels of antigen presentation after co culture with macrophages as above. Levels of costimulation (as measured by frequency of CD86-expressing macrophages, Calu-1) or antigen-presentation (as measured by frequency of MHCII-expressing macrophages, HT1080 and SK-MES-1) were quantified and normalized to macrophages that were co-cultured with untreated tumor cells. […] Calu-1, HT-1080, and SK-MES-1 cells were treated with an MMAE-containing ADC (anti-p97-MMAE), vincristine, or paclitaxel for 24 hours and analyzed for HMGB1 release by ELISA.
# [3] = tested on: HeLa cervical cancer cells; experiment: Western blot analysis of ER stress in HeLa cells; details: 1000 nM or 100 nM, 16 hours
# Experimental: HeLa cervical cancer cells were treated with 1000 nM or 100 nM MMAE, Vincristine, or Paclitaxel for 16 hours and harvested for western blot analysis.
# [4] = tested on: Hep3b, Huh7, and JHH7 cells co-cultured with macrophages; experiment: Macrophage costimulation/antigen presentation after co-culture with treated liver tumor cells; details: macrophages harvested 4 days after co-culture; normalized to Paclitaxel-treated tumor cells
# Experimental: Liver tumor lines Hep3b, Huh7, and JHH7 cells were treated with MMAE, Tubulysin M, vincristine, and Paclitaxel for 24 hours and analyzed for ATP secretion. […] Cells were washed and harvested, and subsequently co-cultured with enriched macrophages prepared as above. Macrophages were harvested 4 days after co-culture and assayed for immune activation by flow cytometry. Levels of costimulation (as measured by CD86 expression, JHH7) and antigen-presentation (as measured by frequency of MHCII-expressing cells, Hep3b, Huh7, and JHH7) were quantified and normalized to macrophages that were co-cultured with […]. […] Supernatant from the co-culture of macrophages and dying liver tumor cells was harvested 24 hours later and assayed for levels of cytokine and chemokine production by ELISA and normalized to macrophages that were co-cultured with untreated tumor cells.
# BxPC-3 cells = experiment: ATP secretion from BxPC-3 cells; details: 17 hours
# [5] = tested on: MCF7 cells co-cultured with macrophages; experiment: Cytokine and chemokine production in macrophage co-culture with treated MCF7 cells; details: MCF7 co-culture supernatant 24 hours, ELISA, normalized to untreated
# Experimental: MCF7 […] cells were treated with MMAE, an MMAE-containing ADC (anti-CD71 OKT9-1006), vincristine, and Paclitaxel for 24 hours. Cells were washed and harvested, and subsequently co-cultured with the enriched macrophages prepared above. Macrophages were harvested 4 days after co-culture and assayed for immune activation by flow cytometry. […] Supernatant from the co-culture of macrophages and dying MCF7 cells was harvested 24 hours later and assayed for levels of cytokine and chemokine production by ELISA and normalized to macrophages that were co-cultured with untreated tumor cells.
# PC-3 cells [6] = experiment: Western blot analysis of ER stress in PC-3 cells; details: 24 hours
# Experimental: (§1) PC-3 prostate tumor cells were also treated with MMAE, Vincristine, or Paclitaxel. Supernatant was collected after 16 hours of treatment, and analyzed for ATP secretion. […] PC-3 cells were treated for 24 hours with an MMAE-containing ADC (SGN-LIV1A) or MMAE and harvested in RIPA buffer for western blot analysis (FIG. 3C).
# PC-3 cells [7] = experiment: HMGB1 release from PC-3 cells; details: FIG. 3E
# [8] = tested on: T-24 cells co-cultured with macrophages; experiment: Macrophage antigen presentation after co-culture with treated T-24 cells; details: T-24 treated 24 hours; macrophages harvested 4 days after co-culture
# Experimental: T-24 (bladder) cells were treated with MMAE or an MMAE-containing ADC (ASG-22ME) for 48 hours and analyzed for ATP secretion. […] T-24 cells were also treated with MMAE, an MMAE-containing ADC (ASG22ME, Enfortumab vedotin), vincristine, and Paclitaxel for 24 hours. Cells were washed and harvested, and subsequently co-cultured with the enriched macrophages as above. Macrophages were harvested 4 days after co-culture and assayed for immune activation by flow cytometry. Level of antigen-presentation (as measured by frequency of MHCII-expressing macrophages) was quantified and normalized to macrophages that were co-cultured with untreated tumor cells. […] Supernatant from the co-culture of macrophages and dying T-24 tumor cells was harvested after 24 hours and assayed for levels of cytokine and chemokine production by ELISA and normalized to macrophages that were co-cultured with untreated tumor cells.
# MiaPaca2 cells = experiment: ATP secretion from MiaPaca2 cells; details: supernatant after 16 hours
# Experimental: MiaPaca2 cells were treated with MMAE, Vincristine, or Paclitaxel. Supernatant was collected after 16 hours of treatment, and analyzed for ATP secretion.
# MCF7 breast cancer cells = experiment: Western blot analysis of ER stress response in MCF7 cells; details: 16 hours
# Experimental: MCF7 breast cancer cells were treated with 100 nM MMAE for 16 hours and harvested RIPA buffer for western blot analysis.
# MCF7 cells were treated with MMAE or an MMAE-containing ADC (SGN-LIV1A) for 16 hours and harvested in […] for western bot analysis. […] Induction of ICD is also characterized by the secretion of ATP and HMGB1. Extracellular ATP serves as a strong chemotactic signal, promoting immune cell migration to the tumor site. Upon arrival, extracellular HMGB1 signals through various pro-inflammatory receptors (TLR2, TLR4, RAGE) to activate antigen-presenting cells, thereby promoting immune activity within the tumor.
# [9] = tested on: PC-3 prostate tumor cells; experiment: ATP secretion from PC-3 cells
# Experimental: as §1
structure (smiles),measurement,setting,value
"CC[C@H](C)[C@@H]([C@@H](CC(=O)N1CCC[C@H]1[C@H](OC)[C@@H](C)C(=O)N[C@H](C)[C@@H](O)c1ccccc1)OC)N(C)C(=O)[C@@H](NC(=O)[C@@H](NC)C(C)C)C(C)C [MMAE, monomethyl auristatin E] (H-[NMeV]V[Dil][Dolaproine]-X1)","ER stress response (ATF4 expression, phosphorylation of JNK)",[1],further increased the ER stress response
same,"Immune activation (CD86-expressing macrophages, Calu-1; MHCII-expressing macrophages, HT1080 and SK-MES-1)",[2],increase in immune activation in 3/3 tumor cell lines that was more robust than treatment with Paclitaxel
same,ER stress responses (phosphorylation of IRE1),[3],activated ER stress responses
same,Severe ER stress response (phosphorylation of JNK),[3],more severe ER stress response that was sustained with decreasing doses
same,"Immune-activation (CD86 expression, JHH7; MHCII-expressing cells, Hep3b, Huh7, JHH7)",[4],increase in immune-activation in 3/3 tumor cell lines that was more robust than Paclitaxel
same,ATP secretion,BxPC-3 cells,equivalent levels of ATP secretion
same,Cytokine and chemokine production,[5],increase of the indicated cytokines and chemokines that was more robust than treatment with Paclitaxel
same,ER stress (phosphorylation of IRE1 and JNK),PC-3 cells [6],elicits ER stress (phosphorylation of IRE1 and JNK); also recorded: elicits ER stress (phosphorylation of IRE1 and INK)
same,Release of HMGB1,PC-3 cells [7],release of ATP and HMGB1
same,Macrophage antigen presentation (frequency of MHCII-expressing macrophages),[8],increase in macrophage antigen presentation that was more robust than treatment with Paclitaxel
same,ATP secretion,MiaPaca2 cells,robust ATP secretion
same,"Severe ER stress (JNK signaling by phosphorylated IRE1, expression of CHOP)",MCF7 breast cancer cells; western blot,elicited by MMAE
same,"ER stress response (phosphorylation of IRE1 and eIF2a, cleavage of full-length ATF6)",MCF7 breast cancer cells; western blot (100 nM MMAE elsewhere in the source),activated all 3 pathways of the ER stress response
same,Release of ATP,[9]; FIG. 3D,release of ATP
same,ATP secretion,[9]; supernatant after 16 hours,robust ATP secretion

# Source: patent US20230110128A1, “USE OF ANTIBODY DRUG CONJUGATES COMPRISING TUBULIN DISRUPTING AGENTS TO TREAT SOLID TUMOR” (Seagen Inc., priority 2018, published 2023)
